The METLIN SMRT retention time set (Domingo-Almenara et al. 2019)
Values belong to the compound of their own block, whether it stands above or below them.

Assay: gradient 5% acetonitrile 3 min, to 50% in 2 min, to 85% in 15 min, held 3 min, 100 µL/min
Details: column: Zorbax Extend-C18 2.1 x 50 mm; eluents: water / acetonitrile, 0.1% formic acid
Summary of the method: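 A Zorbax Extend-C18 column (2.1 × 50 mm, 1.8 μm) run at 100 μL/min with water and acetonitrile, both containing 0.1% formic acid, separated mixtures of ~100 pure standards. The HPLC was coupled to a quadrupole time-of-flight mass spectrometer operated in positive and negative ionization mode, with dead and dwell volumes of 40 μL and 900 μL. Each retention time was taken from a computationally picked adduct peak that was then manually inspected.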

Structure (SMILES): CCOc1ccc(NC(=O)c2cc(=O)c3cc(Cl)c(C)cc3o2)c2cccnc12
RP-LC retention time: 714 s

Structure (SMILES): COc1ccc2nc(NC(=O)Cc3csc4nc(-c5ccccc5)cn34)sc2c1
RP-LC retention time: 810 s

Structure (SMILES): Cc1ccc(S(=O)(=O)NC2CCN(C(=O)C3CC(=O)N(C4CCCC4)C3)CC2)cc1 (stereo not given)
RP-LC retention time: 727 s

Structure (SMILES): Cc1cc(C(=O)Nc2ccc3nc(N4CCN(C)CC4)cc(C)c3c2)ccc1[N+](=O)[O-]
RP-LC retention time: 595 s

Structure (SMILES): O=C(Cn1cccc1-c1nnc(-c2ccccc2)o1)NCc1cccs1
RP-LC retention time: 854 s

Structure (SMILES): O=C(Nc1cccc(C(F)(F)F)c1)c1ccc(-n2cnc(NC(=O)C3CC3)c2)cc1
RP-LC retention time: 872 s

Structure (SMILES): c1ccc(-c2nc(C3CCNC3)no2)cc1 (stereo not given)
RP-LC retention time: 591 s

Structure (SMILES): CCOC(=O)c1ccc(Nc2nc(N3CCCC3)nc(N3CCCC3)n2)cc1
RP-LC retention time: 772 s

Structure (SMILES): O=C(C1CCN(c2cnc3nccnc3c2)CC1)N1CCN(C2CCCCC2)CC1
RP-LC retention time: 572 s

Structure (SMILES): Cc1csc(C(=O)N2CC3CC2C(=O)O3)c1 (stereo not given)
RP-LC retention time: 624 s

Structure (SMILES): CCCN(CCC)CCCNC(=O)C1=C(C)C(=O)OC12CCN(Cc1ccccc1)CC2
RP-LC retention time: 558 s

Structure (SMILES): Cc1ncc2c(n1)CCN(C(=O)c1c(F)cccc1Cl)C2
RP-LC retention time: 663 s

Structure (SMILES): Cc1cccc(-c2noc(C3CCCN3S(=O)(=O)c3c(C)cc(C)cc3C)n2)c1 (stereo not given)
RP-LC retention time: 1340 s

Structure (SMILES): Cc1ccc(C2c3[nH]c4ccccc4c3CCN2C(=O)C2CCC2)cc1 (stereo not given)
RP-LC retention time: 1200 s

Structure (SMILES): O=C(Cn1c(=O)c2cc(-c3ccco3)nn2c2ncccc21)NC1CCCC1
RP-LC retention time: 698 s

Structure (SMILES): O=C1N(c2cccc(F)c2)C(c2ccccc2)C12CCNCC2 (stereo not given)
RP-LC retention time: 669 s

Structure (SMILES): CCOCCCNC(=O)Cn1ncc2c(N3CCN(c4ccccn4)CC3)ncnc21
RP-LC retention time: 565 s

Structure (SMILES): Cc1nc(C)c(C(=O)N2CCC(c3noc(-c4ccccn4)n3)C2)s1 (stereo not given)
RP-LC retention time: 648 s

Structure (SMILES): CC(C)OCCCNC(=O)C1CCCN(S(=O)(=O)c2ccc3c(ccn3C)c2)C1 (stereo not given)
RP-LC retention time: 720 s

Structure (SMILES): Cc1nc(-c2ccc3c(c2)CCN3C(=O)c2cccc(C#N)c2)cs1
RP-LC retention time: 906 s

Structure (SMILES): CC(C)NC(=O)NC1CCN(c2nc3ccccc3n(C)c2=O)CC1
RP-LC retention time: 562 s

Structure (SMILES): O=C1CC(c2cc(F)cc(F)c2)Cc2nc(N3CCN(c4ccccc4F)CC3)ncc21 (stereo not given)
RP-LC retention time: 1300 s

Structure (SMILES): CC(C)(C)NC(=O)N1CC(n2cc(C(=O)N3CCOCC3)nn2)C1
RP-LC retention time: 646 s

Structure (SMILES): Cc1csc(-c2cc(S(=O)(=O)NC(C)C)c(C)n2C)n1
RP-LC retention time: 852 s

Structure (SMILES): CCOC(=O)c1c(NCCC(C)C)c2cc(Cl)ccc2[nH]c1=O
RP-LC retention time: 890 s

Structure (SMILES): CCCn1nnc2cc(-c3noc(CN4C(=O)COc5ccccc54)n3)ccc21
RP-LC retention time: 926 s

Structure (SMILES): O=C(CSc1ccc2nnc(-c3cccnc3)n2n1)NC1CCCCC1
RP-LC retention time: 592 s

Structure (SMILES): CCNS(=O)(=O)c1cccnc1Nc1cccc(C)c1
RP-LC retention time: 998 s

Structure (SMILES): CCn1nc(C)n2cc(S(=O)(=O)NCc3ccc(F)c(Cl)c3)cc2c1=O
RP-LC retention time: 930 s

Structure (SMILES): Cc1ccc(-c2cn3c(CC(=O)Nc4ccc(F)cc4F)csc3n2)cc1C
RP-LC retention time: 861 s

Structure (SMILES): Cc1cccc(N2CCN(C(=S)Nc3ccc4nc(N5CCN(C)CC5)cc(C)c4c3)CC2)c1C
RP-LC retention time: 655 s

Structure (SMILES): COc1ccc(C(=O)c2c(N)c(C#N)c3ccccn23)cc1
RP-LC retention time: 777 s

Structure (SMILES): COc1ccc(C(=O)N2CCCC2c2nc(-c3ccc(OC)cc3)no2)cc1 (stereo not given)
RP-LC retention time: 957 s

Structure (SMILES): CCOCCCNC(=O)c1cc2sc(C)cc2n1C
RP-LC retention time: 861 s

Structure (SMILES): CCCN1CCN(C(=O)C2CCCN(c3nc4cccnc4s3)C2)CC1 (stereo not given)
RP-LC retention time: 593 s

Structure (SMILES): CCN1CCN(c2cc(C)c3cc(NC(=S)N4CCC(N5CCCCC5)CC4)ccc3n2)CC1
RP-LC retention time: 488 s

Structure (SMILES): CCn1c(CCNC(=O)c2ccc(F)c(Cl)c2)nc2cccnc21
RP-LC retention time: 676 s

Structure (SMILES): O=C1N(C2CCN(S(=O)(=O)c3cccnc3)CC2)C(c2ccccc2)C12CCCC2 (stereo not given)
RP-LC retention time: 912 s

Structure (SMILES): O=C(CCc1ccccc1)NCCn1c(C(F)(F)F)nc2cccnc21
RP-LC retention time: 998 s

Structure (SMILES): CN(C)c1ccc(C(=O)NC(Cc2ccccc2)c2nnc(N3CCCCC3)o2)cc1 (stereo not given)
RP-LC retention time: 889 s

Structure (SMILES): Cc1cc(N2CCN(C(=O)c3cccc(N(C)C)c3)CC2)nc2nncn12
RP-LC retention time: 1010 s

Structure (SMILES): Cc1ccc(Nc2c(-c3ccc(C)cc3)nc3ccc(C)cn23)cc1
RP-LC retention time: 797 s

Structure (SMILES): CS(=O)(=O)Nc1cccc(NC(=O)CCc2c[nH]c3ccccc23)c1
RP-LC retention time: 714 s

Structure (SMILES): Cc1ccc(Cn2cccc2C(=O)C(=O)NC2CCCC2)cc1
RP-LC retention time: 1100 s

Structure (SMILES): Cc1noc(C)c1S(=O)(=O)N1CC(N(C)Cc2cccnc2)C1
RP-LC retention time: 594 s

Structure (SMILES): Cn1cc(-c2nc(C(=O)Nc3ccc(F)cc3)cs2)c2cccnc21
RP-LC retention time: 973 s

Structure (SMILES): C[C@H](C(=O)O)c1cccc(C(=O)c2ccccc2)c1
RP-LC retention time: 866 s

Structure (SMILES): CCCN(C)S(=O)(=O)c1cc(-c2nnc(C)o2)co1
RP-LC retention time: 768 s

The remaining lines, values ahead:

RP-LC retention time: 834 s
Structure (SMILES): CCS(=O)(=O)N1CC(=O)N(c2cc(C)ccc2C)C(C)(C(=O)NC2CCCC2)C1 (stereo not given)

RP-LC retention time: 762 s
Structure (SMILES): Cc1cc2c(=O)n(CC(=O)Nc3ccc(F)cc3C)ccc2s1

RP-LC retention time: 706 s
Structure (SMILES): CC(C)CC(=O)N1CC(c2nc(-c3cccnc3)no2)C2(CCOCC2)C1 (stereo not given)

RP-LC retention time: 792 s
Structure (SMILES): O=C(Nc1cccc(-c2ccc(N3CCOCC3)nn2)c1)Nc1ccc2c(c1)CCC2

RP-LC retention time: 971 s
Structure (SMILES): CCCCC(=O)N1C[C@H](c2nc(-c3ccccc3)no2)[C@@H](C)C1

RP-LC retention time: 626 s
Structure (SMILES): CCN(CCNC(=O)CCc1cc2cc(OC)ccc2[nH]c1=O)Cc1ccccc1

RP-LC retention time: 921 s
Structure (SMILES): O=C1CC(c2noc(-c3ccccc3)n2)CN1c1ccccc1 (stereo not given)

RP-LC retention time: 653 s
Structure (SMILES): COC(=O)CNC(=O)N1CCC(N2C(=O)C3(CCCC3)C2c2scnc2C)CC1 (stereo not given)

RP-LC retention time: 606 s
Structure (SMILES): O=C(CCS(=O)(=O)c1ccccc1)N1CC(c2nc(-c3cnccn3)no2)C1

RP-LC retention time: 1290 s
Structure (SMILES): O=S(=O)(c1ccc2c(c1)CCCC2)N1CCCC1c1nc(-c2ccc(F)cc2)no1 (stereo not given)

RP-LC retention time: 709 s
Structure (SMILES): CCC1CCCCN1c1cc(SCC(=O)Nc2ccc(N(C)C)cc2)ncn1 (stereo not given)

RP-LC retention time: 688 s
Structure (SMILES): O=C(O)c1cn2ccnc(-c3ccc(F)cc3)c2n1

RP-LC retention time: 879 s
Structure (SMILES): O=C(Cc1cccs1)Nc1ccc(OCc2nnc(-c3ccccc3)o2)cc1

RP-LC retention time: 713 s
Structure (SMILES): COc1ccc(NC(=O)C2CC(=O)N(c3n[nH]c4cccc(F)c34)C2)c(OC)c1 (stereo not given)

RP-LC retention time: 1040 s
Structure (SMILES): CCCn1cc(C(=O)NCC(=O)OCC)c(S(=O)(=O)N2CCN(c3ccc(Cl)cc3)CC2)n1

RP-LC retention time: 1270 s
Structure (SMILES): Cc1ccc(C2Cn3nnc(-c4nc(-c5ccccc5Br)no4)c3CO2)c(C)c1 (stereo not given)

RP-LC retention time: 585 s
Structure (SMILES): O=C(Cn1cnc2c(nc3n2CCCCC3)c1=O)N1CCN(C2CCCCC2)CC1

RP-LC retention time: 879 s
Structure (SMILES): CC1CN(C(=O)Cn2cc(SCC(=O)NC3CCCCC3)c3ccccc32)CC(C)O1 (stereo not given)

RP-LC retention time: 772 s
Structure (SMILES): CCn1c(C)c(CN2CCC(C(=O)NCc3cccc(Cl)c3)CC2)c2ccccc21

RP-LC retention time: 728 s
Structure (SMILES): Cc1cccc(OCc2ccc(-c3nc(C#N)c(NCCCN(C)C)o3)o2)c1

RP-LC retention time: 915 s
Structure (SMILES): O=C(O)[C@H](CC(=O)N1C[C@H]2CCCC[C@H]2C1)Cc1ccccc1

RP-LC retention time: 906 s
Structure (SMILES): Cc1cccc(CN2CC(=O)N(c3ccc(C)c(C)c3)[C@@H]3CS(=O)(=O)C[C@@H]32)c1

RP-LC retention time: 620 s
Structure (SMILES): CCN1CCCC1CNS(=O)(=O)c1ccc2c(c1)CCN2C(=O)CCC(=O)N1CCCCC1 (stereo not given)

RP-LC retention time: 619 s
Structure (SMILES): CC1OC2(CS1)CN1CCC2CC1 (stereo not given)

RP-LC retention time: 965 s
Structure (SMILES): CCOc1ccc(-c2cn3ccn(-c4cc(C)cc(C)c4)c(=O)c3n2)cc1

RP-LC retention time: 888 s
Structure (SMILES): COc1ccc2[nH]c3c(c2c1)CCN1C(=O)N(CCc2ccc(OC)c(OC)c2)C(=O)C31C (stereo not given)

RP-LC retention time: 776 s
Structure (SMILES): CC1=NS(=O)(=O)N(C)C=C1C(=O)OCc1c(C)noc1C

RP-LC retention time: 808 s
Structure (SMILES): CCn1ccc2sc(C)c(C(=O)NC(C)c3ccc(F)cc3)c2c1=O (stereo not given)

RP-LC retention time: 744 s
Structure (SMILES): COc1ccc(-c2cn3c(CC(=O)Nc4cc(F)ccc4F)csc3n2)cc1OC

RP-LC retention time: 905 s
Structure (SMILES): CCOC(=O)N1CCc2c(sc(NC(=O)C3CC3)c2-c2nc3ccccc3s2)C1

RP-LC retention time: 672 s
Structure (SMILES): COc1ccc(-c2cc(N3CCN(C(=O)Nc4cc(OC)cc(OC)c4)CC3)ncn2)cc1

RP-LC retention time: 1050 s
Structure (SMILES): O=S(=O)(NCc1ccco1)c1cccc(-c2nc(-c3ccccc3)no2)c1

RP-LC retention time: 581 s
Structure (SMILES): CCC(=O)NCc1nc2c(n1C)CN(S(=O)(=O)c1ccc(CC)cc1)CC2

RP-LC retention time: 900 s
Structure (SMILES): CN(C)S(=O)(=O)c1ccc2c(c1)N(CC(=O)NCc1cccc(F)c1)C(=O)C1CCCCN21 (stereo not given)

RP-LC retention time: 734 s
Structure (SMILES): CCOc1cc(=O)n2c(c1C(=O)NC1CCCCC1)CCCCC2

RP-LC retention time: 758 s
Structure (SMILES): COc1ccc2[nH]c(C(=O)N3CCN(C(=O)Cc4cccs4)CC3)cc2c1

RP-LC retention time: 750 s
Structure (SMILES): CCN(CC)c1ccc(NS(=O)(=O)c2cc(-c3nc(C)cs3)sc2C)c(C)c1

RP-LC retention time: 847 s
Structure (SMILES): COc1ccc(C)cc1NC(=O)C1CCN(c2nc(C3CCC3)nc3csc(C)c23)CC1

RP-LC retention time: 979 s
Structure (SMILES): CCN1C(=O)COc2cc(-c3noc(C(=O)NCCC(C)C)n3)ccc21

RP-LC retention time: 784 s
Structure (SMILES): CCN1c2ccc(F)cc2C(=O)NC12CCN(C(=O)Cc1ccc(OC)cc1)CC2

RP-LC retention time: 662 s
Structure (SMILES): COc1cc(NC(=O)N2CC(c3nc(C(C)C)nn3C)C2)cc(OC)c1

RP-LC retention time: 716 s
Structure (SMILES): CC(=O)N1CCC(C(=O)Nc2cccc(OCc3nnc(-c4ccccc4)o3)c2)CC1
